# Data as given in US10975060B2, “High relaxivity gadolinium chelate compounds for use in magnetic resonance imaging” (BAYER PHARMA AKTIENGESELLSCHAFT, priority 2016, dated 2021).
# Read-outs that look alike come from different tables or passages of the source.
# Tests used:
# [1] = Dynamic CT diffusion phantom study (dialysis cassette in fetal bovine serum); format: physicochemical; conditions: dialysis cassette 20,000 MWCO, 20 mmol Gd/L, CT signal over 30 h
# Procedure: The described dynamic CT diffusion study compares the ability of Examples 1-10 and Reference compounds 1 and 4 to pass a semipermeable membrane (20 kDa). A 128-row clinical CT device (SOMATOM Definition, 128; Siemens Healthcare, Forchheim, Germany) was used to monitor the diffusion through a semipermeable membrane at 100 kV and 104 mA. Single measurements were performed at 0 min, 1 min, 2 min, 3 min, 5 min, 10 min, 15 min, 20 min, 30 min, 45 min, 60 min, 2 h, 3 h, 5 h, 7 h, 22 h, 24 h, 30 h after placing the dialysis cassette (Slide-A-Lyser, 20,000 MWCO, 0.1-0.5 mL Capacity, Thermo Scientific, Roskilde, Denmark) filled with contrast agent in fetal bovine serum solution (FBS, Sigma, F7524). The images were reconstructed with a slice thickness of 2.4 mm and a B30 convolution kernel. The used concentration in the dialysis cassettes of the investigated Examples 1-10 and Reference compounds 1 and 4 was 20 mmol Gd/L.
# The imaging results for all investigated Examples and the Reference compounds 1 and 4 for the time points 0 min and 30 h after placing the cassettes in the FBS solution are depicted in FIG. 1. For image analysis, regions of interest were manually drawn on 1 centrally located slice for each time point (a representative measurement region is indicated in FIG. 1: Image RC1).
# [2] = Relaxivity measurements at 3.0 T (whole body MRI scanner, 37 °C) in water and human plasma; format: physicochemical; conditions: normalized to Gd, average ± standard deviation
# Procedure: Relaxivity Measurements at 3.0 T
# Relaxivity measurements at 3.0 T were performed with a whole body 3.0 T MRI Scanner (Philips Intera, Philips Healthcare, Hamburg, Germany) using a knee-coil (SENSE-Knee-8, Philips Healthcare, Hamburg, Germany). The sample tubes (CryoTubetm Vials, Thermo Scientific 1.8 mL, Roskilde, Denmark) were positioned in 3 rows of 4 and 5 tubes in a plastic holder in a box filled with water. The temperature was adjusted to 37° C. For the MRI sequence the shortest possible echo-time (TE) with 7.46 milliseconds was used. The inversion times were chosen to optimize the sequence to measure T1 values corresponding to the estimated T1 range of all relaxation times of contrast media containing solutions. The following inversion times (TIs) were applied: 50, 100, 150, 200, 300, 500, 700, 1000, 1400, 2100, 3200, and 4500 milliseconds. The sequence was run with a constant relaxation delay of 3.4 seconds after the registration of the last echo (variable TR in the range from 3450 to 7900 milliseconds). For details of the fit procedure, see Rohrer et. al. (Invest. Radiol. 2005; 40, 11: 715-724). The experimental matrix of the phantom measurement was 320×320.
# The relaxivities were evaluated using three different concentrations of each compound (3 concentrations between 0.05 and 2 mM).
# The T1 relaxation times of Example compounds were measured in water and human plasma. Human plasma preparation: For each experiment fresh blood was taken from a volunteer using 10 mL citrate-tubes (Sarstedt S-Monovette 02.1067.001, 10 mL, Citrate). The 10 mL citrate-tubes were carefully inverted 10 times to mix blood and anticoagulant and centrifuged for 15 minutes at 1811 g at room temperature (Eppendorf, Centrifuge 5810R).
# The relaxivities ri (where i=1, 2) were calculated on the basis of the measured relaxation rates Ri in water and plasma: Ri=Ri(0)+ri[CGd], where Ri(0) represent the relaxation rate of the respective solvent and CGd the concentration of the compound normalized to the Gadolinium (Table 2).
# [3] = Relaxivity measurements at 1.4 T (MiniSpec mq60, 60 MHz, 37 °C) in water and human plasma; format: physicochemical; conditions: 1.41 T, normalized to Gd
# Procedure: Relaxivity Measurements at 1.4 T
# Relaxivity measurements at 1.41 T were performed using a MiniSpec mq60 spectrometer (Bruker Analytik, Karlsruhe, Germany) operating at a resonance frequency of 60 MHz and a temperature of 37° C. The T1 relaxation times were determined using the standard inversion recovery (IR) method with a fixed relaxation delay of at least 5×T1. The variable inversion time (TI) was calculated automatically by the standard software of the MiniSpec mq60 (8 steps). The T2 measurements were done by using a Carr-Purcell-Meiboom-Gill (CPMG) pulse sequence, applying a relaxation delay of at least 5×T1.
# Each relaxivity measurement was performed using three different Gd concentrations (3 concentrations between 0.05 and 2 mM). The T1 and T2 relaxation times of the example compounds 1 to 10 were measured in different media for example in water and human plasma. Human plasma preparation: For each experiment fresh blood was taken from a volunteer using 10 mL citrate-tubes (Sarstedt S-Monovette 02.1067.001, 10 mL, Citrate). The 10 mL citrate-tubes were carefully inverted 10 times to mix blood and anticoagulant and centrifuged for 15 minutes at 1811 g at room temperature (Eppendorf, Centrifuge 5810R).
# The relaxivities ri (where i=1, 2) were calculated on the basis of the measured relaxation rates Ri in water and plasma: Ri=Ri(0)+ri[CGd], where Ri(0) represent the relaxation rate of the respective solvent and CGd the concentration of the compound normalized to the Gadolinium. The Gadolinium concentrations of the investigated solutions were verified by Inductively Coupled Plasma Mass Spectrometry (ICP-MS Agilent 7500a, Waldbronn, Germany).
# [4] = Water solubility (exploratory, 10 mM Tris-HCl, 20 °C); format: physicochemical; conditions: water (10 mM Tris-HCl buffer), pH 7.4
# Procedure: The exploratory water solubilities of the compounds were determined at room temperature (20° C.) in 0.5 mL buffer solution (10 mM Tris-HCl) in the microcentrifuge tubes (Eppendorf, 2.0 mL safe-lock caps). The solid compounds were added stepwise to the buffer solution. The suspension was mixed using a shaker (Heidolph Reax 2000) and treated 5 min in an ultrasound bath (Bandelin, Sonorex Super RK255H).
# [5] = Pharmacokinetic parameters of blood plasma levels after i.v. bolus in male rats (three compartment model); format: in vivo, rats (Han-Wistar); conditions: i.v. bolus 0.1 mmol Gd/kg, mean, n=3
# Procedure: Pharmacokinetic parameters of Example 6 were determined in male rats (Han-Wistar, 235-270 g, n=3). The compound was administered as a sterile aqueous solution (53.8 mmol Gd/L) as a bolus in the tail vein of the animals. The dose was 0.1 mmol Gd/kg. Blood was sampled 1, 3, 5, 10, 15, 30, 60, 90, 120, 240, 360, 480, and 1440 min post injection and the Gd concentration was determined by Inductively Coupled Plasma Mass Spectrometry (ICP-MS Agilent 7500a, Waldbronn, Germany). The blood level was converted to plasma concentrations by division by 0.625 (plasma fraction of rat blood, assuming strictly extracellular distribution). As a control, 3 animals (Han-Wistar, 248-289 g), were treated in the same way with Reference Compound 1 (Gadovist®), a low molecular weight contrast agent.
# The fit of the obtained data to a three compartment model (Phoenix-WinNonlin) yielded the pharmacokinetic parameters which are shown in Table 3.
# [6] = 37 °C, cited from earlier work
# [7] = Contrast-enhanced magnetic resonance angiography (CE-MRA) at 1.5 T, intraindividual comparison; format: in vivo, New Zealand white rabbits; conditions: rabbits, 25 μmol Gd/kg bw versus standard dose 100 μmol/kg and example compound 6 at 25 μmol/kg
# Procedure: Reference compound 1 (Gadovist®), as an approved representative of the Gadolinium-based MRI contrast agents, was used in both dose protocols (100 μmol Gd/kg bw and 25 μmol Gd/kg bw) and compared to example compound 6 (25 μmol Gd/kg bw).
# The contrast-enhanced magnetic resonance angiography study was performed at a clinical 1.5 T Scanner (Magnetom Avanto Fit, Siemens Healthcare, Erlangen, Germany). For optimal signal exploitation, a spine in combination with a body-flex coil was used for the data acquisition. The study was performed on male New Zealand white rabbits (weight 3.6-3.9 kg, n=4, Charles River Kisslegg). The animals received all 3 contrast protocols within one imaging session. The order of the contrast protocols was randomized between the animals.
# All animals are initially anesthetized using a body weight-adjusted intramuscular injection of a mixture (1+2) of xylazine hydrochloride (20 mg/mL, Rompun 2%, Bayer Vital GmbH, Leverkusen, Germany) and ketamine hydrochloride (100 mg/mL, Ketavet, Pfizer, Pharmacia GmbH, Berlin, Germany) using 1 mL/kg body weight. The continuous anesthesia of the intubated animals (endotracheal tube, Rueschelit Super Safe Clear, cuff 3.0 mm, Willy Ruesch A G, Kernen, Germany) is achieved by the intravenous injection of 0.9 mg propofol per kilogram per hour (10 mg/mL, Propofol-Lipuro 1%, B. Braun Melsungen A G, Melsungen, Germany). The continuous intravenous injection is performed using a MR infusion system (Continuum MR Infusion System, Medrad Europe B. V., A E Beek, Germany). The tracheal respiration (SV 900C, Maquet, Rastatt, Germany) is performed with 55% oxygen, forty breaths per minute, and a breathing volume of 4 mL per kilogram body weight per minute.
# Based on a localizer MRI sequence oriented in coronal, axial, and sagittal directions the anatomic course of the aorta is acquired. A small intravenous test bolus (0.2 mL, Reference compound 1 followed by 1.3 mL saline) was administered to determine the time to peak interval (descending aorta) using a test bolus sequence. The MRA delay time between the start of the contrast injection and the start of image acquisition was calculated by subtracting the time to k-space center from the time to peak interval. For MRA a 3D FLASH sequence (TR=3.3 ms, TE=1.2 ms, flip=25°) was acquired before and after injection of the contrast agent considering the delay time. Both measurements were performed within expiratory breath hold. The time interval for the intraindividual comparison between the different contrast agent applications was twenty to thirty minutes.
# Quantitative image evaluation was performed on the subtraction images (post contrast—baseline). […]
AUC∞ Area under the curve (to infinity) [5],MRT Mean residence time [5],"V1 + V2 Volume, compartments V1 + V2 [5]","V2 Volume, compartment V2 [5]","Vd, ss Volume of distribution at steady state [5]","t½ α Half-life, compartment V1 [5]","t½ β Half-life, compartment V2 [5]","t½ γ Half-life, compartment V3 [5]",Compound,Diffusion half-live (20 kDa) [1],r1 human plasma ([2]; human plasma),r1 water ([2]; water),r1 human plasma ([3]; human plasma),r1 water ([3]; water),Solubility [4],"r1 human plasma ([6]; 1.5 T, bovine plasma instead of human plasma, from Rohrer et al.)","r1 water ([6]; 1.5 T, from Rohrer et al.)","r1 human plasma ([6]; 3.0 T, plasma, reference compounds marked ^ (Rohrer et al., bovine plasma per Table 1 footnote))","r1 water ([6]; 3.0 T, reference compounds marked ^ (Rohrer et al. per Table 1 footnote))",vascular contrast at the reduced dose (25 μmol/kg) of the reference compound [7]
,,,,,,,,"CCN(CC(=O)NCC(CNC(=O)CN(CC)C(=O)CN1CCN(CC(=O)[O-])CCN(CC(=O)[O-])CCN(CC(=O)[O-])CC1)(CNC(=O)CN(CC)C(=O)CN1CCN(CC(=O)[O-])CCN(CC(=O)[O-])CCN(CC(=O)[O-])CC1)CNC(=O)CN(CC)C(=O)CN1CCN(CC(=O)[O-])CCN(CC(=O)[O-])CCN(CC(=O)[O-])CC1)C(=O)CN1CCN(CC(=O)[O-])CCN(CC(=O)[O-])CCN(CC(=O)[O-])CC1.[Gd+3].[Gd+3].[Gd+3].[Gd+3] [Example 2, Tetragadolinium [4,10-bis(carboxylatomethyl)-7-{3,13-diethyl-8,8-bis({[(ethyl{[4,7,10-tris(carboxylatomethyl)-1,4,7,10-tetraazacyclododecan-1-yl]acetyl}amino)acetyl]-amino}methyl)-2,5,11,14-tetraoxo-15-[4,7,10-tris(carboxylatomethyl)-1,4,7,10-tetraaza-cyclododecan-1-yl]-3,6,10,13-tetraazapentadec-1-yl}-1,4,7,10-tetraazacyclododecan-1-yl]acetate]",13.3 h,11.3 ± 0.1 L/mmol/s,9.4 ± 0.1 L/mmol/s,11.6 L/mmol/s,10.4 L/mmol/s,>1000 mg/100 mL,,,,,
11334 µmol·min/L,40.5 min,0.11 L/kg,0.16 L/kg,0.26 L/kg,1.80 min,22.1 min,780 min,"O=C([O-])CN1CCN(CC(=O)[O-])CCN([C@H](CO)[C@H](O)CO)CCN(CC(=O)[O-])CC1.[Gd+3] (racemic) [RC1, gadobutrol, reference compound]",2.1 h,,,,,,5.2 L/mmol/s,3.3 L/mmol/s,5.0 ± 0.3 L/mmol/s,3.2 ± 0.3 L/mmol/s,considerable lower
